Data published in paper PMC9021288 (Nature Communications, 2022).

Each compound was assayed on TA98, TA100, TA102, TA1535, TA1537 (assay: not given). Conditions: TA98, -S-9, 5 ug/plate, positive control.
Protocol: Safety studies were performed by commercial services using their standard protocols. […] Genotoxicity was investigated using the Ames test (Bacterial Reverse Mutation Assay) (Covance Laboratories Ltd, North Yorkshire, England). In vitro mammalian cell micronucleus screening assay was studied in human peripheral blood lymphocytes (BioReliance Corporation, Rockville, USA). Cardiotoxicity was determined against the hERG channel in an automated patch clamp assay using the Qpatch or against the hNaV 1.5, hKV 1.5 and hCaV 1.2 using a manual patch-clamp technique (Metrion Biosciences, Cambridge, UK). Cytotoxicity in human and rat primary hepatocytes was assessed using the CellTiter-Blue assay performed by commercial services (KaLy-Cell). The viability of HepG2 cells was monitored through the addition of 1 mM resazurin. Following 6 h incubation, the relative amount of reduced resazurin was detected in a fluorimeter and compared to the assay controls (vehicle: 0.1% DMSO and positive control: 10 µM puromycin).
For `O=[N+]([O-])c1ccc2c(c1)Cc1ccccc1-2` [Compound 2NF], the “Fold Increase” value was 49.1 and the “Mean (Revertant Numbers Per Plate)” value was 1375.7.

Same assay, conditions: TA100, +S-9, 5 ug/plate, positive control
`Nc1ccc2cc3ccccc3cc2c1` [AAN] was tested, and the “Fold Increase” value was 21.6 and the “Mean (Revertant Numbers Per Plate)” value was 2606.

Same assay, conditions: TA100, -S-9, 2 ug/plate, positive control
In the case of `[N-]=[N+]=[N-].[Na+]` [NaN3], the “Fold Increase” value is reported as 9.7 and the “Mean (Revertant Numbers Per Plate)” value is reported as 845.

Same assay, conditions: TA102, +S-9, 20 ug/plate, positive control
For `Nc1ccc2cc3ccccc3cc2c1` [AAN], the “Fold Increase” value was 11 and the “Mean (Revertant Numbers Per Plate)” value was 2462.

Same assay, conditions: TA102, -S-9, 0.2 ug/plate, positive control
With `CO[C@@]12[C@H](COC(N)=O)C3=C(C(=O)C(C)=C(N)C3=O)N1C[C@@H]1N[C@@H]12` [MMC] the “Fold Increase” value was 3.3.

Same assay, conditions: TA1535, +S-9, 5 ug/plate, positive control
`Nc1ccc2cc3ccccc3cc2c1` [AAN] was tested, and the “Fold Increase” value was 7.5 and the “Mean (Revertant Numbers Per Plate)” value was 173.3.

Same assay, conditions: TA1535, -S-9, 2 ug/plate, positive control
With `[N-]=[N+]=[N-].[Na+]` [NaN3] the “Fold Increase” value was 26.6 and the “Mean (Revertant Numbers Per Plate)” value was 672.7.

Same assay, conditions: TA1537, +S-9, 5 ug/plate, positive control
For `Nc1ccc2cc3ccccc3cc2c1` [AAN], the “Fold Increase” value was 39.7 and the “Mean (Revertant Numbers Per Plate)” value was 277.7.

Same assay, conditions: TA1537, -S-9, 50 ug/plate, positive control
With `Nc1c2ccccc2nc2ccccc12` [AAC] the “Fold Increase” value was 54.9 and the “Mean (Revertant Numbers Per Plate)” value was 384.3.

Each compound was assayed on P. falciparum NF54 asexual blood-stage parasites (assay: 72-h asexual blood-stage replication assay (SYBR Green)). Conditions: asexual blood stages NF54 parasites; read-out: IC50.
Format: cell-based, Plasmodium falciparum
Protocol: Replication assays were performed using a SYBR Green method as described previously. Briefly, asynchronous parasites were diluted to 0.83% parasitemia, 3% hematocrit in 30 µl medium, and added to 30 µl of diluted compounds in medium (0.1% DMSO final concentration) in black 384-wells plates. After a 72-h incubation, 30 µl of SYBR Green diluted in lysis buffer was added according to the manufacturer’s protocol (Life Technologies). Fluorescence intensity was measured on a BioTek Synergy 2 Plate Reader after 1-h incubation and was normalized to a DMSO control (100% growth) and DHA- or epoxomicin-treatment (no growth). […] Parasite survival was assessed by flow cytometry on an Accuri C6 (BD Biosciences) with BD C6 Plus software using SYBR Green and MitoTracker Deep Red FM (Life Technologies) as nuclear stain and vital dye, respectively, and data were analyzed using FlowJo (10.5.0). […] Luminescence was measured after 72 h using the Renilla-Glo(R) Luciferase Assay System (Promega E2750) and the GlomAX® Discover Multimode Microplate Reader (Promega). The luminescence values were normalized to DMSO vehicle (100% growth) and 200 nM chloroquine-treated (no growth) samples as controls.
Dose-response assays were analyzed by a nonlinear regression using a four-parameter model and the least squares method to find the best fit. One-way Analysis of variance (ANOVA) was performed using the Bonferroni’s Multiple Comparison Test. For the majority of experiments, 2-4 biological replicates were performed. Typically, 2 replicates were performed for screening activities, and a minimum of 3 replicates are performed for other experiments unless stated otherwise.
For `C[C@@H](CNC(=O)[C@H](O)C(C)(C)CO)NC(=O)c1cc[nH]c1` [MMV893376], the IC50 was 1800 nM. `C[C@@H](CNC(=O)[C@H](O)C(C)(C)CO)NC(=O)c1ccoc1` [MMV893339] was tested, and the IC50 was 42 nM. With `C[C@@H](CNC(=O)[C@H](O)C(C)(C)CO)NS(=O)(=O)CCc1ccccc1` [MMV692748] the IC50 was over 10000 nM. With `C[C@@H](CNC(=O)[C@H](O)C(C)(C)CO)NC(=O)c1cc(Cl)c(F)cc1F` [MMV692009] the IC50 was 2.3 nM. `C[C@@H](CNC(=O)[C@H](O)C(C)(C)CO)NC(=O)c1ccc(C(F)(F)F)cc1` [MMV892612] gave an IC50 of 132 nM. Compound `COc1ccccc1C(=O)N[C@@H](C)CNC(=O)[C@H](O)C(C)(C)CO` [MMV892812] has an IC50 of over 10000 nM. `C[C@@H](CNC(=O)[C@H](O)C(C)(C)CO)NC(=O)c1cc(Cl)ccc1F` [MMV1576728] was tested, and the IC50 was 2.6 nM. Compound `C[C@@H](CNC(=O)[C@H](O)C(C)(C)CO)NC(=O)c1cccc(Cl)c1F` [MMV977411] has an IC50 of 12 nM. For `C[C@@H](CNC(=O)[C@H](O)C(C)(C)CO)NC(=O)c1coc2ccccc12` [MMV893337], the IC50 was 3.9 nM. `C[C@@H](CNC(=O)[C@H](O)C(C)(C)CO)NC(=O)c1ccccc1C(F)(F)F` [MMV892613] showed an IC50 of over 10000 nM. With `C[C@@H](CNC(=O)[C@H](O)C(C)(C)CO)NC(=O)c1cccs1` [MMV893344] the IC50 was 18.2 nM. With `C[C@@H](CNC(=O)[C@H](O)C(C)(C)CO)NC(=O)c1ccccc1Cl` [MMV892807] the IC50 was over 10000 nM. `COc1ccc(C(=O)N[C@@H](C)CNC(=O)[C@H](O)C(C)(C)CO)cc1` [MMV892810] was tested, and the IC50 was 344 nM. Compound `C[C@@H](CNC(=O)[C@H](O)C(C)(C)CO)NC(=O)c1cc(Cl)c(Cl)cc1F` [MMV893655] has an IC50 of 19.7 nM. For `C[C@@H](CNC(=O)[C@H](O)C(C)(C)CO)NC(=O)c1ccc(C#N)cc1` [MMV884961], the IC50 was 535 nM. In the case of `C[C@@H](CNC(=O)[C@H](O)C(C)(C)CO)NC(=O)c1ccc(F)cc1` [MMV1542002], the IC50 is reported as 82 nM. `C[C@@H](CNC(=O)[C@H](O)C(C)(C)CO)NC(=O)c1ccsc1` [MMV893340] gave an IC50 of 14.6 nM. With `CC(C)(CNC(=O)CCc1ccccc1F)NC(=O)[C@H](O)C(C)(C)CO` [MMV689261] the IC50 was over 10000 nM. In the case of `C[C@@H](CNC(=O)[C@H](O)C(C)(C)CO)c1nnc(CCc2ccccc2F)[nH]1` [MMV884788], the IC50 is reported as 554 nM. In the case of `C[C@@H](CNC(=O)[C@H](O)C(C)(C)CO)NC(=O)c1ccc(F)c(C#N)c1` [MMV977409], the IC50 is reported as 84 nM. For `CCC(CC)(CO)[C@@H](O)C(=O)NC[C@H](C)NC(=O)CCc1ccccc1F` [MMV884964], the IC50 was over 1000 nM. Work on `C[C@H](CNC(=O)[C@H](O)C(C)(C)CO)NC(=O)CCc1ccccc1F` [MMV689260] yielded an IC50 of 210 nM. Compound `CC(CNC(=O)C(C)(O)C(C)(C)CO)NC(=O)CCc1ccccc1F` (mixture of isomers) [MMV1545785] has an IC50 of 1000 nM. For `C[C@@H](CNC(=O)[C@H](O)C(C)(C)CO)NC(=O)c1ccccc1F` [MMV154200], the IC50 was 41 nM. `C[C@@H](CNC(=O)[C@H](O)C(C)(C)CO)NC(=O)c1csc2ccccc12` [MMV893338] was tested, and the IC50 was 195 nM. In the case of `C[C@@H](CNC(=O)C(=O)C(C)(C)CO)NC(=O)CCc1ccccc1F` [MMV1545786], the IC50 is reported as 1000 nM. Compound `Cc1cc(C(=O)N[C@@H](C)CNC(=O)[C@H](O)C(C)(C)CO)c(F)cc1F` [MMV893115] has an IC50 of 66 nM. For `C[C@@H](CNC(=O)[C@H](O)C(C)(C)CO)NC(=O)c1c(F)cccc1F` [MMV693185], the IC50 was 478 nM. Work on `C[C@@H](CNC(=O)[C@H](O)C(C)(C)CO)NC(=O)c1cccc(C#N)c1F` [MMV977410] yielded an IC50 of 19 nM. Compound `C[C@@H](CNC(=O)[C@H](O)C(C)(C)CO)NC(=O)c1cc2ccccc2o1` [MMV893335] has an IC50 of 12.5 nM. With `C[C@@H](CNC(=O)[C@H](O)C(C)(C)CO)NC(=O)c1ccc(F)c(F)c1` [MMV1576731] the IC50 was 4.6 nM. In the case of `C[C@@H](CNC(=O)[C@H](O)C(C)(C)CO)NC(=O)c1cc2ccccc2[nH]1` [MMV893121], the IC50 is reported as 53 nM. In the case of `C[C@@H](CNC(=O)[C@H](O)C(C)(C)CO)NC(=O)c1ccc(F)c(Cl)c1` [MMV977407], the IC50 is reported as 3.4 nM. `C[C@@H](CNC(=O)[C@@H](O)C(C)(C)CO)NC(=O)CCc1ccccc1F` [MMV884787] was tested, and the IC50 was 235 nM. `C[C@H](CNC(=O)[C@@H](O)C(C)(C)CO)NC(=O)CCc1ccccc1F` [MMV884968] gave an IC50 of over 1000 nM. Compound `C[C@@H](CNC(=O)[C@H](O)C(C)(C)CO)NC(=O)c1cc2ccccc2s1` [MMV893336] has an IC50 of 19.9 nM. `C[C@@H](CNC(=O)[C@H](O)C(C)(C)CO)NC(=O)c1cccc(Cl)c1` [MMV892808] showed an IC50 of 2.3 nM. For `C[C@@H](CNC(=O)[C@H](O)C(C)(C)CO)NC(=O)c1c[nH]c2ccccc12` [MMV893375], the IC50 was 41 nM. `C[C@@H](CNC(=O)[C@H](O)C(C)(C)CO)NC(=O)c1cccc(N(C)C)c1` [MMV884970] showed an IC50 of over 10000 nM. With `C[C@@H](CNC(=O)[C@H](O)C(C)(C)CO)NC(=O)c1ccc(Cl)c(F)c1` [MMV1576725] the IC50 was 56 nM. `C[C@@H](CNC(=O)[C@H](O)C(C)(C)CO)NC(=O)c1cccc(F)c1F` [MMV1576723] showed an IC50 of 32.7 nM. `C[C@@H](CNC(=O)[C@H](O)C(C)(C)CO)NC(=O)c1cccc(F)n1` [MMV892814] showed an IC50 of over 10000 nM. For `CC[C@@H](CNC(=O)[C@H](O)C(C)(C)CO)NC(=O)CCc1ccccc1F` [MMV692676], the IC50 was 122 nM. `C[C@@H](CNC(=O)[C@H](O)C(C)(C)CO)NC(=O)c1ccc(Cl)cc1` [MMV892809] gave an IC50 of 103 nM. `C[C@@H](CNC(=O)[C@H](O)C(C)(C)CO)NC(=O)c1ccc[nH]1` [MMV893345] showed an IC50 of over 10000 nM. With `C[C@@H](CNC(=O)[C@H](O)C(C)(C)CO)NC(=O)c1cccc(S(C)(=O)=O)c1` [MMV884969] the IC50 was over 10000 nM. In the case of `Cc1ccccc1C(=O)N[C@@H](C)CNC(=O)[C@H](O)C(C)(C)CO` [MMV1542005], the IC50 is reported as over 10000 nM. `COc1cccc(C(=O)N[C@@H](C)CNC(=O)[C@H](O)C(C)(C)CO)c1` [MMV892811] gave an IC50 of 32 nM. In the case of `C[C@@H](CNC(=O)[C@H](O)C(C)(C)CNS(C)(=O)=O)NC(=O)CCc1ccccc1F` [MMV1545779], the IC50 is reported as over 1000 nM. In the case of `C[C@@H](CNC(=O)[C@H](O)C(C)(C)CO)NC(=O)c1cc(F)ccc1F` [MMV1576724], the IC50 is reported as 7 nM. `Cc1ccc(C(=O)N[C@@H](C)CNC(=O)[C@H](O)C(C)(C)CO)cc1` [MMV1542100] showed an IC50 of 85 nM. With `Cc1cccc(C(=O)N[C@@H](C)CNC(=O)[C@H](O)C(C)(C)CO)c1` [MMV1542099] the IC50 was 22 nM. In the case of `CC(C)(CNC(=O)[C@H](O)C(C)(C)CO)NC(=O)CCc1ccccc1F` [MMV689455], the IC50 is reported as 1190 nM.
